Tested on: P388
Assay: Cytotoxicity against mouse P388 cells
Format: functional, cell-based

Row | SMILES | IC50
1 | CCCC1C=CC(CCC[C@]2(OC)C=C[C@@H](CC(=O)OC)OO2)OO1 (some centres not stated) | < 0.1 µg/mL
2 | CCC/C=C/C=C/CCC[C@]1(OC)C=C[C@@H](CC(=O)OC)OO1 | < 0.1 µg/mL

Reference: ChEMBL document CHEMBL1148033, “Four new C16 1,2-dioxene-polyketides from the sponge Plakortis aff. simplex” (J Nat Prod, 1993)
